Columns and labels:
Liver COMT = assay: Ex vivo COMT activity in mice liver homogenates after administration by gastric tube; conditions: for Potency upon liver COMT compared with brain COMT: mice, after oral administration; for Liver COMT (% of control) 1 h / Liver COMT (% of control) 6 h: mice liver homogenates, means ± S.E.M. of 4-8; for Liver COMT (% of control) 1 h: 1 h after administration by gastric tube; for Liver COMT (% of control) 6 h: 6 h after administration by gastric tube
Brain COMT = assay: Ex vivo COMT activity in mice brain homogenates after administration by gastric tube; conditions: for Brain COMT (% of control) 1 h / Brain COMT (% of control) 6 h: mice brain homogenates, means ± S.E.M. of 4-8; for Brain COMT (% of control) 1 h: 1 h after administration by gastric tube; for Brain COMT (% of control) 6 h: 6 h after administration by gastric tube; for Duration of COMT inhibition and activity in the brain: conclusion from the mice study
COMT = target: T1, COMT (Homo sapiens, UniProt P21964); assay: COMT activity (O-methylation of adrenaline to metanephrine) in intact SK-N-SH cells; type: cell-based; conditions: test compound 100 nM, means ± SEM, n = 4-8
T1 construct: O-methylationof adrenaline in intact SK-N-SH cells; host or cells: SK-N-SH cells
T1 sequence (P21964 1-271): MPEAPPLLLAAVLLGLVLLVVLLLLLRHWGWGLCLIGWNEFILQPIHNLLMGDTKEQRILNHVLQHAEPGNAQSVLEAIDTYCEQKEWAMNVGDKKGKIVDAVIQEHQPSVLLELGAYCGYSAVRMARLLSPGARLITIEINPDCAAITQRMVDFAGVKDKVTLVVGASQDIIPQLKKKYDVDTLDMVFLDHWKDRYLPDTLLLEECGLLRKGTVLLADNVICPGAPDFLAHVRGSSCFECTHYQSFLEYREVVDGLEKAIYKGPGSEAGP

Compound	Potency upon liver COMT compared with brain COMT (Liver COMT)	Brain COMT (% of control) 1 h (Brain COMT)	Brain COMT (% of control) 6 h (Brain COMT)	Duration of COMT inhibition and activity in the brain (Brain COMT)	further results
Cl.O=C(CCN1CCCCCCC1)c1cc(O)c(O)c([N+](=O)[O-])c1 [Compound 16, 3-Azocan-1-yl-1-(3,4-dihydroxy-5-nitro-phenyl)-propan-1-one hydrochloride]	equally potent in inhibiting liver and brain COMT activity				
Cl.N#CC1(c2ccccc2)CCN(CCC(=O)c2cc(O)c(O)c([N+](=O)[O-])c2)CC1 [Compound 15, 1-[3-(3,4-Dihydroxy-5-nitro-phenyl)-3-oxo-propyl]-4-phenyl-piperidine-4-carbonitrile hydrochloride]		93.0 ± 9.0 % of control	122.0 ± 9.0 % of control		Liver COMT (% of control) 1 h (Liver COMT): 51.7 ± 5.9 % of control; Liver COMT (% of control) 6 h (Liver COMT): 37.9 ± 8.4 % of control; COMT activity (% of control) (COMT): 2.9 ± 0.3 % of control
Cl.O=C(CCN1CCCCC1)c1cc(O)c(O)c([N+](=O)[O-])c1 [Compound 2, 1-(3,4-Dihydroxy-5-nitro-phenyl)-3-piperidin-1-yl-propan-1-one hydrochloride]	much more potent upon liver COMT than brain COMT			long acting COMT inhibitor with limited activity in the brain	
CC1CC(C)CN(CC(=O)c2cc(O)c(O)c([N+](=O)[O-])c2)C1.Cl (stereo not shown) [Compound 12, 1-(3,4-Dihydroxy-5-nitro-phenyl)-2-(3,5-dimethyl-piperidin-1-yl)-ethanone hydrochloride]		32.0 ± 2.0 % of control	84.0 ± 6.0 % of control		
CC1CN(CC(=O)c2cc(O)c(O)c([N+](=O)[O-])c2)CC(C)O1.Cl (stereo not shown) [Compound 11, 1-(3,4-Dihydroxy-5-nitro-phenyl)-2-(2,6-dimethyl-morpholin-4-yl)-ethanone hydrochloride]		80.0 ± 5.0 % of control	103.0 ± 7.0 % of control		
Cl.O=C(CN1CCCCCC1)c1cc(O)c(O)c([N+](=O)[O-])c1 [Compound 1, 2-Azepan-1-yl-1-(3,4-dihydroxy-5-nitro-phenyl)-ethanone hydrochloride]		45.0 ± 15.0 % of control	102.0 ± 19.0 % of control		
Cl.O=C(CC(c1ccccc1)N1CCOCC1)c1cc(O)c(O)c([N+](=O)[O-])c1 (stereo not shown) [Compound 5, 1-(3,4-Dihydroxy-5-nitro-phenyl)-3-morpholin-4-yl-3-phenyl-propan-1-one hydrochloride]	equally potent in inhibiting liver and brain COMT activity				
CC1CCCCN1CC(=O)c1cc(O)c(O)c([N+](=O)[O-])c1.Cl (stereo not shown) [Compound 6, 1-(3,4-Dihydroxy-5-nitro-phenyl)-2-(2-methyl-piperidin-1-yl)-ethanone hydrochloride]		37.0 ± 3.3 % of control	66.0 ± 2.6 % of control		
O=C(COc1ccc2ccccc2c1)c1cc(O)c(O)c([N+](=O)[O-])c1 [Compound 10, 1-(3,4-Dihydroxy-5-nitro-phenyl)-2-(naphthalen-2-yloxy)-ethanone]	much more potent upon liver COMT than brain COMT			long acting COMT inhibitor with limited activity in the brain	
Cl.O=C(CC(c1ccccc1)N1CCCCC1)c1cc(O)c(O)c([N+](=O)[O-])c1 (stereo not shown) [Compound 3, 1-(3,4-Dihydroxy-5-nitro-phenyl)-3-phenyl-3-piperidin-1-yl-propan-1-one hydrochloride]	much more potent upon liver COMT than brain COMT			long acting COMT inhibitor with limited activity in the brain	
Cl.Cl.O=C(CCN1CCN(c2cccc(C(F)(F)F)c2)CC1)c1cc(O)c(O)c([N+](=O)[O-])c1 [Compound 18, 1-(3,4-Dihydroxy-5-nitro-phenyl)-3-[4-(3-trifluoromethyl-phenyl)-piperazin-1-yl]-propan-1-one dihydrochloride]	much more potent upon liver COMT than brain COMT			long acting COMT inhibitor with limited activity in the brain	
CCN(CC)C(C)C(=O)c1cc(O)c(O)c([N+](=O)[O-])c1.Cl (stereo not shown) [Compound 7, 2-Diethylamino-1-(3,4-dihydroxy-5-nitro-phenyl)-propan-1-one hydrochloride]		74.0 ± 12.0 % of control	126.0 ± 8.0 % of control		Liver COMT (% of control) 1 h (Liver COMT): 38.4 ± 2.8 % of control; Liver COMT (% of control) 6 h (Liver COMT): 57.1 ± 4.9 % of control; COMT activity (% of control) (COMT): 9.0 ± 0.2 % of control
